In one data set the target is T1, human ferroportin (Homo sapiens, UniProt Q9NP59).
T1 construct: expressed in transfected cells
T1 sequence (Q9NP59 1-571): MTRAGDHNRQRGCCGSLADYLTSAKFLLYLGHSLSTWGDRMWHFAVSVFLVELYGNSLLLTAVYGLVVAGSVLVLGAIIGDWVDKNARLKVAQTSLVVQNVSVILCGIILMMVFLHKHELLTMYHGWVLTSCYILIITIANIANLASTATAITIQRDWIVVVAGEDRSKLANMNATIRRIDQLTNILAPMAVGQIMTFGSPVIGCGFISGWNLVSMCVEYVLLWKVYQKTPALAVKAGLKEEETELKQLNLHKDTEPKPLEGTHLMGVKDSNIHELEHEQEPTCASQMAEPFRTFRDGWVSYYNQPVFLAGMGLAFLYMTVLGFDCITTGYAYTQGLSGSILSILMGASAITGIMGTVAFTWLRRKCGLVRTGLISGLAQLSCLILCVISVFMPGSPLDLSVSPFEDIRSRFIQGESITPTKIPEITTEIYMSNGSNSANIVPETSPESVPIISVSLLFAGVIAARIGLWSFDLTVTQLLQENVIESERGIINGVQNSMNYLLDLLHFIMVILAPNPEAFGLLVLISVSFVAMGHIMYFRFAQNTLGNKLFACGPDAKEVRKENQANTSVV
Put plainly: FPN activity assay: internalization/degradation of ferroportin-GFP in stably transfected HEK293 cells (decrease in GFP fluorescence). It counts as cell-based. As to conditions: Table 2B; HEK293 cells expressing human ferroportin-GFP, at least 18 hours incubation; read-out: FPN EC50. As for the experimental part:
Following internalization, the ferroportin protein is degraded.
A retro inverse peptide is a peptide with a reversed sequence in all D amino acids. An example is that Hy-Glu-Thr-His-NH2 becomes Hy-DHis-DThr-DGlu-NH2. The EC50 of these reference compounds for ferroportin internalization/degradation was determined according to the FPN activity assay described above. These peptides served as control standards.
These values were determined as described herein.

The test system of the next data set is LAD2 cells. The class given is cell-based, human. From the text:
In anaphylactoid reactions, the main mechanism involves the direct stimulation of mast cells or basophils, leading to the release of anaphylactic mediators such as histamine and β-hexosaminidase. A recent study by McNeil et al. (McNeil B D et al., 2015) reported that MrgprX2, a specific membrane receptor on human mast cells, induces anaphylactoid reactions. The LAD2 (Laboratory of Allergic Diseases 2) human mast cell line, derived from human mast cell sarcoma/leukemia (Kirshenbaum et al., 2003), is commonly employed to study anaphylactoid reactions, because its biological properties are identical to those of primary human mast cells, including the overexpression of the MrgprX2 receptor and sensitivity towards degranulating peptides (Kulka et al., 2008). The release of anaphylactic mediators such as f-hexosaminidase, is assessed by fluorometric quantification.
On the day of the assay, serial dilutions of compounds were added to LAD2 cells plated at 20000 cells/well in a 96-well plate. After incubation for 30 minutes, the amount of β-hexosaminidase released into the supernatants and in cell lysates was quantified using the fluorogenic substrate 4-methylumbelliferyl-N-acetyl-b-D-glucosaminide. Dose-response curves were generated by plotting the % of β-hexosaminidase release (y-axis) against the concentrations of peptides tested (x-axis). […]. (Table 2D).

The target in data set [1] is T2, ferroportin (endogenously expressed in T47D cells) (Homo sapiens, UniProt Q9NP59).
T2 construct: is a human breast carcinoma adherent cell line which endogenously expresses ferroportin; host or cells: T47D
T2 sequence (Q9NP59 1-571): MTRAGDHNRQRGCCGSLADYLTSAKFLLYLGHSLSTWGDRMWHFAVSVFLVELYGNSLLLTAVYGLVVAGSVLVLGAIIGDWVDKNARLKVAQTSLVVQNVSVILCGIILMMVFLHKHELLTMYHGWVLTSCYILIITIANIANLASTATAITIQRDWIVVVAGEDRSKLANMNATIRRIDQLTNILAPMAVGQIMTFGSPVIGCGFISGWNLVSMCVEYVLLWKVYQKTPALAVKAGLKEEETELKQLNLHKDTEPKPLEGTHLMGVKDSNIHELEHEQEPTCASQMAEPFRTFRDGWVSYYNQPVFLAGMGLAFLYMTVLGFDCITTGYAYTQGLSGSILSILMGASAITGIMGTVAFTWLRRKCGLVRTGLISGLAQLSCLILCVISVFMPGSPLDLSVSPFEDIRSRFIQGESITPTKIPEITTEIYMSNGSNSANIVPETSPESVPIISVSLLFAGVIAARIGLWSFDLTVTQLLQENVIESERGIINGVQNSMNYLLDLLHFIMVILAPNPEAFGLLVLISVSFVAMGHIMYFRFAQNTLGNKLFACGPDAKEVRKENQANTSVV
Put plainly: T47D cell-based ferroportin internalization assay in presence of 0.5% mouse serum albumin (AF647-conjugated detection peptide, flow cytometry). The conditions noted are these: read-out: IC50: T47D Internalization MSA. As for the experimental part:
The potency of the peptides in causing ferroportin internalization was evaluated in a T47D cell-based assay. […] In this internalization assay, the potency of the test peptides was evaluated in the presence of serum albumin, which is the main protein component in the blood. T47D cells were maintained in RPMI media (containing required amount of fetal bovine serum) and regularly sub-cultured. […] The test peptide dilution series were allowed to incubate at room temperature for 30 min. Then the media was aspirated from the 96-well cell plate and test peptide dilution series were added. After 1 hr incubation, the media with test peptides was aspirated out and AF647-conjugated detection peptide was added at fixed concentration of 200 nM. […] The cells were washed again after a 2 hr incubation in preparation for flow cytometry analysis. The Median Fluorescence Intensity (MFI) of the AF647-positive population was measured (after removing dead cells and non-singlets from the analysis). The MFI values were used to generate a dose-response curve and obtain IC50 potencies for the test peptides.

Data set [2] can be described thus: Stability in simulated intestinal fluid (FaSSIF with 1% pancreatin). It counts as in vitro ADME. As to conditions: pig, pH 6.5, Table 2A, 20 μM in FaSSIF with 1% pancreatin, 37° C., percent in brackets not explained, read-out: SIF Half life. As for the experimental part: FaSSIF was prepared by dissolving 1.2 g porcine pancreatin (Chem-supply, PL378) in 100 mL Blank FaSSIF and stirred at room temperature for 30 minutes. The solution was filtered through 0.45 μm membrane and aliquot and stored at −20° C.
Experimental compounds of interest (20 μM) were incubated with pre-warmed FaSSIF (1% pancreatin in final incubation mixture) at 37° C. Aliquots were taken at various time points up to 24 hours (e.g. 0, 0.25, 1, 3, 6 and 24 hr), and immediately quenched with 4 volumes of organic solvent (acetonitrile/methanol (1:1) and 0.1% formic acid, containing 1 μM internal standard). Quenched samples were stored at 4° C. until the end of the experiment and centrifuged at 4,000 rpm for 10 minutes. The supernatant was diluted 1:1 with deionized water and analyzed using LC-MS. Percentage remaining at each time point was calculated based on the peak area ratio (analyte over internal standard) relative to the initial level at time zero. Half-lives were calculated by fitting to a first-order exponential decay equation using GraphPad.
Compounds of interest (at concentration of 20 μM) were mixed with pre-warmed FaSSIF (1% pancreatin in final working solution). The solution mixture was aliquoted and incubated at 37° C. The number of aliquots required was equivalent to the number of time points (e.g. 0, 0.25, 1, 3, 6 and 24 hr). […]

Data set [3] concerns the target T3, human ferroportin (SLC40A1) fused in frame with GFP, stably expressed in HEK293 cells (human, UniProt Q9NP59 1-571).
T3 sequence (looked up): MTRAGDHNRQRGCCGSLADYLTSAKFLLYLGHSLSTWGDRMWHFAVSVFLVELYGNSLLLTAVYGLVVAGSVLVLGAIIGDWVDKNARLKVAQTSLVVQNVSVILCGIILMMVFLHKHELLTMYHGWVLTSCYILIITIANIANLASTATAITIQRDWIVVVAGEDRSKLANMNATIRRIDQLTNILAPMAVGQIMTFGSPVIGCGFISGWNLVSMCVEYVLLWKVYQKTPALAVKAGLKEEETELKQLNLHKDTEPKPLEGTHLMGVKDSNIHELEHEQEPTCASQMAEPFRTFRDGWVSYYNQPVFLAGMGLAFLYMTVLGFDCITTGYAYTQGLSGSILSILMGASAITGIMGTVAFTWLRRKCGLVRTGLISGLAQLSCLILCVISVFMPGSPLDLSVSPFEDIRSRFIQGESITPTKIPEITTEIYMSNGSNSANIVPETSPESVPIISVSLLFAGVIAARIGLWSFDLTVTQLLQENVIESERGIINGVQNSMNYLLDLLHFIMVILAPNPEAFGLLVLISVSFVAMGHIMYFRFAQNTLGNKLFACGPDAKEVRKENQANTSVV
Put plainly: cell-based or functional assay.

Positions of bridges follow the written chain, without caps; N, C: chain ends. Non-standard residues stand in square brackets, D forms with d. Groups on a side chain read outwards from the residue. *: point of attachment. PEG12 = NCCOCCOCCOCCOCCOCCOCCOCCOCCOCCOCCOCCOCCC(=O)O; Dip = N[C@H](C(=O)O)C(c1ccccc1)c1ccccc1; Palmitoyl = CCCCCCCCCCCCCCCC(=O)*; β3hF = N[C@H](CC(=O)O)Cc1ccccc1; Isovaleryl = CC(C)CC(=O)*; Dap = NC[C@H](N)C(=O)O

`CC[C@H](C)[C@@H]1NC(=O)[C@@H](NC(=O)[C@@H]2CCCN2C(=O)[C@@H](NC(=O)[C@H](Cc2cnc[nH]2)NC(=O)[C@@H](NC(=O)[C@H](CCC(=O)O)NC(=O)CC(C)C)[C@@H](C)O)C(c2ccccc2)c2ccccc2)CSSC[C@@H](C(N)=O)NC(=O)[C@@H](CCCCN)NC(=O)C[C@H](Cc2ccccc2)NC(=O)[C@H](CCCCNC(=O)COCCOCCNC(=O)COCCOCCNC(=O)[C@H](CN)NC(=O)CCCCCCCCCCCCCCCCC(=O)O)NC1=O` [Compound 278, Isovaleric Acid-E-T-H-[Dpa]-P—C—I-[Lys(1PEG2_1PEG2_Dap_C18_Diacid)]-[bhPhe]-[(D)Lys]-C—NH2]: the DC50 at human ferroportin was 4.3 nM. In addition, the EC50 in the data set on LAD2 cells worked out at 15500 nM. Further, the IC50 in data set [1] is 14.2 nM.

`CC[C@H](C)[C@@H]1NC(=O)[C@@H](NC(=O)[C@@H]2CCCN2C(=O)[C@@H](NC(=O)[C@H](Cc2cnc[nH]2)NC(=O)[C@@H](NC(=O)[C@H](CCC(=O)OC)NC(=O)CC(C)C)[C@@H](C)O)C(c2ccccc2)c2ccccc2)CSSC[C@@H](C(N)=O)NC(=O)[C@@H](CCCCN)NC(=O)C[C@H](Cc2ccccc2)NC(=O)[C@H](CCCCNC(=O)COCCOCCNC(=O)COCCOCCNC(=O)[C@H](CN)NC(=O)CCCCCCCCCCCCCCCCC(=O)O)NC1=O` [Compound 279, Isovaleric Acid-[Glu_OMe]-T-H-[Dpa]-P—C—I-[Lys(1PEG2_1PEG2_Dap_C18_Diacid)]-[bhPhe]-[(D)Lys]-C—NH2] displayed an EC50 in the data set on LAD2 cells of 8000 nM. In addition, in data set [1], the IC50 came out at 15.4 nM.

With `CC[C@H](C)[C@@H]1NC(=O)[C@@H](NC(=O)[C@@H]2CCCN2C(=O)[C@@H](NC(=O)[C@H](Cc2cnc[nH]2)NC(=O)[C@@H](NC(=O)[C@H](CCC(=O)O)NC(=O)CC(C)C)C(C)O)C(c2ccccc2)c2ccccc2)CSSC[C@@H](C(N)=O)NC(=O)[C@@H](CCCCN)NC(=O)C[C@H](Cc2ccccc2)NC(=O)[C@H](CCCCNC(=O)COCCOCCNC(=O)COCCOCCNC(=O)CCCCCNC(=O)CCCCCCCCCCCCCCCCC(=O)O)NC1=O` (stereo partly drawn) [Compound 12, Isovaleric Acid-E-T-H-[Dpa]-P-[Cys]-I-[Lys(1Peg2_1Peg2_Ahx_C18_Diacid)]-[bhPhe]-[(D)Lys]-[Cys]-NH2], in data set [2], the half-life at 20 μM is 1.5 h. Also, the EC50 in the data set with LAD2 cells amounted to 12900 nM.

B1: Compound 611 (peptide)
peptide: XEXHXPCIXXXXC
modifications: not fully specified; [Isovaleric Acid]-E-S-H-[Dpa]-P-C-I-[(D)Lys]-[aMePhe]-[Lys(PEG12_Palm)]-[(D)Lys]-C-NH2
For the molecule B1, in data set [3], the “FPN IC50 (nM), grade: *=>500 nM” value is > 500 nM.

Isovaleryl-ET[Dap][Dip]PCI[dK][β3hF]K([PEG12-Palmitoyl])RC-NH2 (disulfide 6-12 (inferred)) [Compound 603]: the “FPN IC50 (nM), grade: *=>500 nM” value in data set [3] was > 500 nM.
